# Measurements: US10512651B2, “Inhibition of MK2 in the treatment of cancer” (STC.UNM, priority 2014, dated 2019)
# What was measured:
# [1] = tested on: Caco-2 colon cancer cells; assay: Caco-2 scratch wound assay (proliferation and migration); type: cell-based; conditions: Caco-2 cells incubated with inhibitor, FIG. 9
# Procedure: FIG. 9 is a graph showing that MK2 inhibition decreases colon cancer carcinoma cell proliferation. Incubating Caco-2 colon cancer cells with the MK2 inhibitor (MK2a) decreased proliferation and migration in a scratch wound assay.
# [2] = tested on: neoplasms in AOM/DSS exposed mice; assay: AOM/DSS mouse model of colon cancer, neoplasm number after MK2 inhibitor treatment; type: in vivo; conditions: treated three times a week for three weeks; FIG. 10
# Procedure: FIG. 10 is a graph showing that AOM/DSS exposed mice treated with MK2 inhibitors regresses neoplasms.
# Mice: C57Bl/6 mice from Harlan Laboratories and the MK2^−/−tm1Mgl (8) mouse strain were bred under pathogen free conditions. Animal procedures were approved by the UNM IACUC. Azoxymethane (AOM), (Sigma Aldrich, St. Louis, Mo.) was injected […] into 6-8 week old female mice at 12.5 mg/kg. Dextran Sodium Sulfate (DSS), (MP Biomedicals, MW 36,000-50,000) was added to drinking water at 2.5% at days 5 and 26 and at 2.0% at day 47, 2.0% for 5 days sacrificed at day 80. Control mice received PBS IP and no DSS in water. Mouse Colon Supernatants: 8 mg (±0.5 mg) of cleaned colon tissues were incubated in complete RPMI with antibiotics for 12 hours. Supernatants were analyzed for cytokines by Luminex bead array (Millipore, Billerica, Mass.) according to manufacturer's instructions.
smiles,measurement,setting,value
O=C(CCCc1ccc(-c2ccccc2F)cc1)Nc1ccc(O)cc1 [MK2a inhibitor],migration in a scratch wound assay,[1],decreased
same,colon cancer carcinoma cell proliferation,[1]; scratch wound assay,decreased
same,neoplasms (number) in AOM/DSS exposed mice,[2],significantly less neoplasms
